The text below walks through data of US12514816B2, “Synergist therapy for enhanced drug delivery: magnetic field facilitated nanoparticle microporation” (Kansas State University Research Foundation, priority 2019, dated 2026).

Data set [1] relates to U-937 human cancer cell line.
Protocol: No Magnetic Pulses: Effects of Cell Suspension Transfer, and Presence or Absence of Doxorubicin and Dex-FeNP upon Cell Death in U-937—The effects of cell suspension transfer to the 5 mm tube was investigated. U-937 cells (40,000 cells/well) were cultured in the presence or absence of Dex-FeNP (final concentration of 0.0025 mg/mL), and in the presence or absence of doxorubicin (at the determined IC50 in U-937), and then transferred to the 5-mm NMR tube. Samples were left at room temperature for the same time duration as samples treated to magnetic pulses. Samples were returned to cell culture plates and then incubated for 2 hours, and finally evaluated for cell death.
20 Magnetic Pulses: Effects of Presence or Absence of Doxorubicin and Dex-FeNP upon Cellular Death in U937—To explore the effects of microporation upon cell death through the application of magnetic pulses upon Dex-FeNP, the same experimental protocol as outlined above for no pulses was performed, but with the application of 20 magnetic pulses to the sample to induce increased drug uptake and enhanced accumulation. The total time required for this single set of 20 pulses is 5 microseconds. During the 5 microseconds, the field is applied constantly, but after this time no further pulses are applied.
50 Magnetic Pulses: Maximizing Cell Death with Magnetic Pulses—To maximize the combinational cell death in this strategy, the number of magnetic pulses was increased.
(§4) A suspension of U-937 or REH in RPMI-1640 medium (cell density of 40,000 cells/well) was added to each well of a 48-well plate, final volume of 0.8 mL, to which 0.2 mL of a pre-prepared solution of Dex-FeNP was added to achieve a final concentration of 0.025 mg/mL and allowed to incubate. For experiments in which no Dex-FeNP was employed, 0.2 mL of media was added in place of the nanoparticle solution. After 24 h, 2 μL of a 0.1 mM doxorubicin solution in DMSO was added to each well to achieve a 0.2 μM concentration. For experiments in which doxorubicin was not used, 0.2 μL of DMSO was added. The contents of each well were then transferred to a sterilized 5-mm NMR-tube. Samples are then placed within a magnetic field generating system and subjected to magnetic pulses. Sample not exposed to the magnetic fields are left within the NMR-tubes for the same time duration as samples treated with the magnet field. Each sample in their respective NMR-tubes were inverted to ensure homogeneity after which 0.7 mL was transferred back to their respective wells on the 48-well plate. NOTE: Only 0.7 mL was transferred to ensure constant volume within each well post-magnetic field application.
For data set [2], the system named is U-937 cells. The data set is described as follows: Drug uptake within U-937 cells quantified via HPLC. It counts as cell-based, human. Conditions: for increase of doxorubicin within cells (uptake), magnetic field pulses vs untreated: 20 magnetic field pulses, HPLC 1.5-2 h after administration. On the procedure:
Employing the same experimental conditions used for cellular death analysis, quantification of doxorubicin was achieved via HPLC. The protocol of this experiment differed from the cellular death analysis in that quantification of doxorubicin was performed 2 hours after administration, rather than 48 hours. Rationale for this is based upon the rapid translocation of doxorubicin into the nucleus where it elicits its therapeutic action.
(§1) After following the general procedures above, samples were incubated for 1.5 h. The cells were then transferred to an Eppendorf tube and centrifuged at 7,500 g for 5 mins, after which the suspension media was removed. The resulting cell pellet was washed with the addition of 0.7 mL of PBS and removed, twice. The cells were lysed with the addition of 0.35 mL of a lysis solution (EDTA, SDS, Tris HCl at pH 8.00), centrifuged at 20,000 gravity for 15 min to pellet large cellular debris, and the supernatant was removed and analyzed via HPLC for doxorubicin quantification.
(§2) Analysis was performed using a Shimadzu HPLC system with C18 analytical column maintained at 32° C. Mobile phases consisted of water-formic acid (999:1, v/v, phase A) and acetonitrile-formic acid (999:1, v/v, phase B) filtered through a membrane filter (0.2 μm) prior to use. A gradient program starting at A:B (85:15, v/v) and ending at A:B (50:50, v/v) was applied over 20 min at a flow rate of 0.35 mL/min. (A:B-85:15-2 min, A:B 50:50-3-8 min, A:B 85:15-9-20 min). The column effluent was monitored via 590 nm.
Employing the same procedure, cells were incubated with the magnetic nanoparticles, treated with dox in the absence and presence of the magnetic field and left to incubate. After 1.5 h, the cells were pelleted, washed twice with sterile PBS, lysed, centrifuged to removal large cellular debris, and then analyzed via HPLC.

The subject of data set [3] is REH cell line. Briefly: Drug accumulation within REH cells quantified via HPLC. It counts as cell-based, human. On the procedure: (§3) Additional cancer cell line: Following the same protocol as outlined above, doxorubicin was evaluated in the REH cancerous cell line. […] As previously observed, when doxorubicin was introduced in the absence of Dex-FeNP cell death increased to ˜40%. […] A trend also observed within the U-937 cell line with doxorubicin.
as §1, §2

For data set [4], the system named is U-937 cells. The data set is described as follows: cells. Conditions: Homo sapiens, U-937, U-937.
Protocol: as §4
(§5) After following the general procedure above, samples were incubated for 48 h and then 70 μL of Alamar blue was added to each well and left to incubate for an additional 2 h. Cells were assessed for viability via standard methods for Alamar blue quantification.
In data set [5] the test system is U-937 (histiocytic lymphoma) human cancer cell line.
Description: (§6) To evaluate the proposed magnetic field facilitated nanoparticle induced microporation, U-937 (lymphoma cancerous suspension cell line) was selected. To investigate the possible toxicity effects of Dex-FeNP within U-937 cells, doxorubicin was used as an evaluation tool. Through the comparison of the IC50 of doxorubicin in U-937 cells relative to the IC50 of doxorubicin in the presence of various concentration of the Dex-FeNP allows for direct comparison of the effects that the Dex-FeNP have upon U-937 cells. In addition to the concentration of the Dex-FeNP, the effects of cell seeding density was also investigated in 384 and 48-well plates (4,000 and 40,000 cells/well, respectively).
(§7) To either 48 or 96 well plates was added doxorubicin (100 to 0.1 μM) in DMSO, Dex-FeNP (0.25 to 0 mg/mL), and U-937 or REH cells (4,000 cells/well and 40,000 cells/well, respectively) to final volumes of 50 and 700 μL. Samples were incubated for 48 h, cell viability was assessed by adding 5 and 70 μM of Alamar blue to each well, incubated for an additional 2 h, and fluorescence read. IC50 values were determined from three or more independent experiments using Prism by GraphPad.
Data set [6] has the same test system. Briefly: cells. Conditions: U-937, 48 h.
Description: as §6, §7
Data set [7] has as its system REH human cancer cell line (acute lymphocytic leukemia). The data set is described as follows: Cell death in REH with/without Dex-FeNP, drug and magnetic field pulses (Alamar Blue). It counts as cell-based. The procedure:
as §3
In general terms: Alamar Blue is a resazurin reagent that responds to reducing activity.

The test system of data set [8] is U-937 cells. Conditions: nanoparticles plus magnetic field pulses vs control.
Protocol: as §4, §5

Molecules are shown by their SMILES. Where “and” joins values, the source holds several entries; their conditions need not be identical. Identical values can stand only once. Like-named read-outs stand apart in the source and are kept apart here.

Turning to `S=c1nc[nH]c2nc[nH]c12` [6TP, 6-thiopurine], in data set [1] (U-937 (printed U-397), Dex-FeNP and 6TP in the presence of magnetic field (20 pulses), 48 h), the “increase in cell death” value came out at 3%. In data set [2] (U-937, Dex-FeNP plus 20 MF pulses, 2 h period), the “increase in accumulation of 6TP” value is 21.4%.
Regarding `COc1cccc2c1C(=O)c1c(O)c3c(c(O)c1C2=O)C[C@@](O)(C(=O)CO)C[C@@H]3O[C@H]1C[C@H](N)[C@H](O)[C@H](C)O1` [Doxorubicin], the “increase in accumulation of doxorubicin” value in data set [3] (Dex-FeNP and doxorubicin, 20 magnetic field pulses, 2 h period) came to 38.7%. The doxorubicin accumulation result in data set [3] (absence of Dex-FeN and magnetic field) is given as “no increase in doxorubicin accumulation”. The IC50 in data set [4] (Dex-FeNP (0.0025 mg/mL) alone, no magnetic field pulses) turned out to be 273 nM; in data set [4] (Dex-FeNP (0.0025 mg/mL) plus 20 magnetic field pulses (combinational strategy)), 165 nM; in data set [6] (read-out: Doxorubicin IC50 (μM) in U-937, 48 h, 4,000 cells/well, 384 plate, 50 μL volume, Dextrin Nano-Particle 0 mg/mL), 0.023 ± 0.012 µM; in data set [6] (read-out: Doxorubicin IC50 (μM) in U-937, 48 h, 4,000 cells/well, 384 plate, 50 μL volume, Dextrin Nano-Particle 0.000001 mg/mL), 0.022 ± 0.019 µM; in data set [6] (read-out: Doxorubicin IC50 (μM) in U-937, 48 h, 4,000 cells/well, 384 plate, 50 μL volume, Dextrin Nano-Particle 0.0001 mg/mL) it was 0.018 ± 0.011 µM; in data set [6] (read-out: Doxorubicin IC50 (μM) in U-937, 48 h, 4,000 cells/well, 384 plate, 50 μL volume, Dextrin Nano-Particle 0.001 mg/mL), 0.018 ± 0.014 µM. Moreover, the IC50 in data set [6] (read-out: Doxorubicin IC50 (μM) in U-937, 48 h, 4,000 cells/well, 384 plate, 50 μL volume, Dextrin Nano-Particle 0.00125 mg/mL) is 0.022 ± 0.008 µM; in data set [6] (read-out: Doxorubicin IC50 (μM) in U-937, 48 h, 4,000 cells/well, 384 plate, 50 μL volume, Dextrin Nano-Particle 0.001666 mg/mL) it was 0.018 ± 0.012 µM; in data set [6] (read-out: Doxorubicin IC50 (μM) in U-937, 48 h, 4,000 cells/well, 384 plate, 50 μL volume, Dextrin Nano-Particle 0.0025 mg/mL), 0.018 ± 0.009 µM; in data set [6] (read-out: Doxorubicin IC50 (μM) in U-937, 48 h, 4,000 cells/well, 384 plate, 50 μL volume, Dextrin Nano-Particle 0.01 mg/mL) it was 3.44 ± 0.56 µM; in data set [6] (read-out: Doxorubicin IC50 (μM) in U-937, 48 h, 4,000 cells/well, 384 plate, 50 μL volume, Dextrin Nano-Particle 0.25 mg/mL) it was 4.19 ± 0.95 µM; in data set [6] (read-out: Doxorubicin IC50 (μM) in U-937, 48 h, 40,000 cells/well, 48 plate, 700 μL volume, Dextrin Nano-Particle 0 mg/mL), 0.201 ± 0.032 µM. In addition, the IC50 in data set [6] (read-out: Doxorubicin IC50 (μM) in U-937, 48 h, 40,000 cells/well, 48 plate, 700 μL volume, Dextrin Nano-Particle 0.000001 mg/mL) was 0.2 ± 0.079 µM; in data set [6] (read-out: Doxorubicin IC50 (μM) in U-937, 48 h, 40,000 cells/well, 48 plate, 700 μL volume, Dextrin Nano-Particle 0.0001 mg/mL) it was 0.17 ± 0.024 µM; in data set [6] (read-out: Doxorubicin IC50 (μM) in U-937, 48 h, 40,000 cells/well, 48 plate, 700 μL volume, Dextrin Nano-Particle 0.001 mg/mL), 0.19 ± 0.035 µM; in data set [6] (read-out: Doxorubicin IC50 (μM) in U-937, 48 h, 40,000 cells/well, 48 plate, 700 μL volume, Dextrin Nano-Particle 0.00125 mg/mL) it was 0.32 ± 0.022 µM; in data set [6] (read-out: Doxorubicin IC50 (μM) in U-937, 48 h, 40,000 cells/well, 48 plate, 700 μL volume, Dextrin Nano-Particle 0.001666 mg/mL), 0.2 ± 0.027 µM; in data set [6] (read-out: Doxorubicin IC50 (μM) in U-937, 48 h, 40,000 cells/well, 48 plate, 700 μL volume, Dextrin Nano-Particle 0.0025 mg/mL), 0.2 ± 0.019 µM. Besides, the IC50 in data set [6] (read-out: Doxorubicin IC50 (μM) in U-937, 48 h, 40,000 cells/well, 48 plate, 700 μL volume, Dextrin Nano-Particle 0.01 mg/mL) was found to be 4.83 ± 0.028 µM; in data set [6] (read-out: Doxorubicin IC50 (μM) in U-937, 48 h, 40,000 cells/well, 48 plate, 700 μL volume, Dextrin Nano-Particle 0.25 mg/mL), 6.25 ± 0.208 µM. For the same molecule, the “IC50 of doxorubicin relative to the doxorubicin control alone” value is recorded as “returned to normal levels within the margins of standard deviation” in data set [5] (Dex-FeNP 0.0025 mg/mL (dilution 1/400), both cell density experiments); “increased in value significantly” in data set [5] (higher concentrations of Dex-FeNP (0.25 and 0.01 mg/mL)). Further, the cell death result in data set [1] (U-937, doxorubicin at its IC50, absence of Dex-FeNP and magnetic pulses) is on record as “over 50%”; in data set [1] (U-937, doxorubicin plus Dex-FeNP, no magnetic field), “remained similar”; in data set [1] (U-937, doxorubicin plus Dex-FeNP, no magnetic field, listed as dox) it was approximately 50%; in data set [7] (doxorubicin in the absence of Dex-FeNP, 20 magnetic field pulses), approximately 40%. The “increase in cell death” value in data set [1] (U-937, pre-treated with magnetic nanoparticles, dox, 20 pulses of the magnetic field) is reported as approximately 8%; in data set [1] (U-937, pre-treated with magnetic nanoparticles, dox, 50 pulses) it was “an increase in cell death”; in data set [1] (U-937, pre-treated with magnetic nanoparticles, dox, 50 pulses, listed as dox), 12%; in data set [7] (Dex-FeNP and doxorubicin in the presence of the magnetic field (20 pulses)) it was approximately 8%. Further, the “increase in U-937 cell death” value in data set [1] (all three elements present: doxorubicin, Dex-FeNP, magnetic pulses (number of pulses not stated)) is on record as 9.1%. Also, the increase in cytotoxicity in data set [1] (human, 48 h, 0.2 μM) is given as approximately 50%. Also, the “doxorubicin uptake relative to cells with neither Dex-FeNP nor pulses” value in data set [2] (U-937, Dex-FeNP, magnet pulses not applied) is “no increase in doxorubicin uptake”. The “increase of doxorubicin within cells (uptake), magnetic field pulses vs untreated” value in data set [2] (U-937 with Dex-FeNP) was 75.2%; in data set [2] (U-937 with Dex-FeNP, listed as doxorubicin), 75.2% and 75%. The “doxorubicin accumulation difference between the two systems at later time points” value in data set [2] (U-937 with Dex-FeNP, with vs without pulses, later than 2 h) is on record as “lower than 75%”. Also, the “enhancement of the effects of the anti-cancer agent by the methodology” value in data set [8] is recorded as “up to 65%”.
